Blank lines part the entries; values can stand above or below the molecule they belong to. Where a SMILES comes first, the peptide text is derived from it. The star is where a group is joined. Cbz = O=C(OCc1ccccc1)*
Assays:
[1] = tested on: PD-L1 protein abundance in MC38, CT26, 4T1 and B16-F10 cells; test: Immunoblot of PD-L1 in mouse tumor cell lines arrested in M phase; format: cell-based; details: MC38, CT26, 4T1 and B16-F10 cells arrested in M phase; treated 20 hours
Description: FIG. 1A, FIG. 1B, FIG. 1C, FIG. 1D, FIG. 1E, FIG. 1F, FIG. 1G, and FIG. 1H are images showing the protein abundance of PD-L1 as the protein fluctuates during cell cycle progression. […] FIG. 1B are the cell-cycle profiles in FIG. 1A, which were monitored by fluorescence-activated cell sorting (FACS) analysis of DNA content. […] FIG. 1E and FIG. 1F show IB analysis of WCL derived from MC38 tumor cells, which are derived from colon adenocarcinoma, or CT26 mouse tumor cells, which are colon carcinoma cells, treated with the indicated concentration of nocodazole for 20 hours before harvesting. FIG. 1G and FIG. 1H show IB analysis of WCL derived from 4T1 tumor cells, which are breast cancer cells, or CT26 mouse tumor cells treated with indicated concentration of taxol for 20 hours before harvesting. […]
(§1) Cells were lysed in EBC buffer (50 mM Tris pH 7.5, 120 mM NaCl, 0.5% NP-40) supplemented with protease inhibitors (Complete Mini, Roche) and phosphatase inhibitors (phosphatase inhibitor cocktail set I and II, Calbiochem). Protein concentrations were measured by the Beckman Coulter DU-800 spectrophotometer using the Bio-Rad protein assay reagent as described previously (Gao et al. Nat Cell Biol 11, 397-408 (2009)). […]

[2] = tested on: PD-L1 protein in C42 cells; test: Immunoblot of PD-L1 in C42 cells treated with proteasome or cullin E3 ligase inhibitor; format: cell-based; details: MG132 10 μM or MLN4924 1 μM, 12 hours
Protocol: FIG. 3K is a graph showing the excised tumor mass (mg) of B16-F10 tumors ectopically expressing SPOP Wild Type (WT) or SPOP-F102C mutant. The B16-F10 tumors were harvested after euthanizing the mice and tumor weight was recorded at the time of sacrifice. Data are represented as mean±S.D., N=5, and *p<0.05 (Student's t-test). FIG. 3L and FIG. 3M are graphs showing the relative cell surface PD-L1 expression and absolute CD3^+ T-cell populations from the isolated tumor-infiltrating lymphocytes in B16-F10 xenografted tumors ectopically expressing SPOP-WT or the SPOP-F102C mutant as determined by FACS analysis. Data are represented as mean±S.D., N=5, and *p<0.05 (Student's t-test). […] FIG. 3O and FIG. 3P are graphs showing the quantification of IHC analysis of PD-L1 protein levels and CD8^+ T cells in 82 cases of SPOP wild-type versus 15 cases of SPOP-mutant human prostate tumor specimens. **p<0.01 (Mann-Whitney test for PD-L1); *p<0.05 (Student's t-test for CD8).
as §1

Cdh1 = target: T1, Cdh1 (UniProt Q9UM11 1-496, limits assumed); test: co-immunoprecipitation from transfected 293T cells (FIG. 4C)
T1 construct: Expressed in 293T cells or endogenous in MDA-MB-231 and HeLa cells; also called HA-Cdh1; APC/C E3 ligase adaptor protein Cdh1
Protocol: Cells were treated with 30 μM MG132 for 6 hours before harvesting. […] FIG. 4F are in vitro kinase assays showing that cyclin D1/CDK4 phosphorylates SPOP at Ser6, not Ser222. FIG. 4G and FIG. 4H show IB analysis of IP and WCL derived from 293T cells transfected with indicated constructs and treated with MG132 (10 μM) for 12 hours before harvesting. […] Tumor volume were measured every three days and plotted individually. […]

PD-L1 = target: T2, PD-L1 (human, UniProt Q9NZQ7 19-290, limits assumed); test: co-immunoprecipitation from transfected 293T cells (FIG. 9E)
T2 construct: also called HA-PD-L1; PD-L1 WT

SPOP-S6A mutant = target: T3, SPOP-S6A mutant (UniProt O43791 1-374); test: co-immunoprecipitation from transfected 293T cells (FIG. 4H)
T3 construct: also called Flag-SPOP S6A; phosphorylation-deficient S6A mutant of SPOP

T1 sequence (Q9UM11 whole entry): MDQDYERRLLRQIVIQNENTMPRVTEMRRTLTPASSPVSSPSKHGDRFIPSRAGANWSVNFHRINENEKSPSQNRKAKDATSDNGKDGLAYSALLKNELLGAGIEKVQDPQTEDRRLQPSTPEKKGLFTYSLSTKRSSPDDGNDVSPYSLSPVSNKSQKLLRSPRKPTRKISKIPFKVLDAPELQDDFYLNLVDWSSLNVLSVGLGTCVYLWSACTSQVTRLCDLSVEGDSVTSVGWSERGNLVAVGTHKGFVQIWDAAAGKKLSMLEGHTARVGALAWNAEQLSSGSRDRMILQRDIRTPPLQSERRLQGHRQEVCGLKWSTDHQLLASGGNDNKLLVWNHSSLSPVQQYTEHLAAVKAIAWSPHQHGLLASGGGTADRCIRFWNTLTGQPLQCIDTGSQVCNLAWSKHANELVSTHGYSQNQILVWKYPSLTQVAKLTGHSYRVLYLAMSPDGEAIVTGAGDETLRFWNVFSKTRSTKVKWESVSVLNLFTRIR
T2 sequence (Q9NZQ7 19-290 limits assumed): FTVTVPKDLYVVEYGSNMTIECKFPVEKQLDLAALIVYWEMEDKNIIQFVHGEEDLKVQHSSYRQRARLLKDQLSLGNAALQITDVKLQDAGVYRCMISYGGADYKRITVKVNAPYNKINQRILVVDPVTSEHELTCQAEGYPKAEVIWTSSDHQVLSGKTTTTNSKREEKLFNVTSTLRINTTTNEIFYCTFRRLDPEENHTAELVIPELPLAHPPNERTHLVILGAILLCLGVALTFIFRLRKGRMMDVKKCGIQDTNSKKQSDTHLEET

Molecule: CC(=O)O[C@H]1C(=O)[C@@]2(C)[C@H]([C@H](OC(=O)c3ccccc3)[C@]3(O)C[C@H](OC(=O)[C@H](O)[C@@H](NC(=O)c4ccccc4)c4ccccc4)C(C)=C1C3(C)C)[C@]1(OC(C)=O)CO[C@@H]1C[C@@H]2O [Taxol]
PD-L1 protein abundance [1]: Elevated PD-L1 protein abundance

Molecule: CC(C)C[C@@H](C=O)NC(=O)[C@H](CC(C)C)NC(=O)[C@H](CC(C)C)NC(=O)OCc1ccccc1 [MG132] (Cbz-Leu-Leu-Leu-aldehyde)
PD-L1 protein stability [2]: stabilized PD-L1 protein

Molecule: NS(=O)(=O)OC[C@@H]1C[C@@H](n2ccc3c(N[C@H]4CCc5ccccc54)ncnc32)C[C@@H]1O [MLN4924]
PD-L1 protein stability [2]: stabilized PD-L1 protein

Molecule: COC(=O)Nc1nc2ccc(C(=O)c3cccs3)cc2[nH]1 [nocodazole]
PD-L1 protein abundance [1]: Elevated PD-L1 protein abundance

binding result (Cdh1): no binding
B1: Flag-SPOP with delta D-Box (RxxL) (other, UniProt O43791 1-374, looked up)
chain: MSRVPSPPPPAEMSSGPVAESWCYTQIKVVKFSYMWTINNFSFCREEMGEVIKSSTFSSGANDKLKWCLRVNPKGLDEESKDYLSLYLLLVSCPKSEVRAKFKFSILNAKGEETKAMESQRAYRFVQGKDWGFKKFIRLDEANGLLPDDKLTLFCEVSVVQDSVNISGQNTMNMVKVPECRLADELGGLWENSRFTDCCLCVAGQEFQAHKAILAARSPVFSAMFEHEMEESKKNRVEINDVEPEVFKEMMCFIYTGKAPNLDKMADDLLAAADKYALERLKVMCEDALCSNLSVENAAEILILADLHSADQLKTQAVDFINYHASDVLETSGWKSMVVSHPHLVAEAYRSLASAQCPFLGPPRKRLKQS
notes: also called SPOP deletion of RxxL mutant; SPOP D-box deletion

binding result (PD-L1): no binding
B2: SPOP delta MATH (other, UniProt O43791 1-374, looked up)
chain: MSRVPSPPPPAEMSSGPVAESWCYTQIKVVSVVQDSVNISGQNTMNMVKVPECRLADELGGLWENSRFTDCCLCVAGQEFQAHKAILAARSPVFSAMFEHEMEESKKNRVEINDVEPEVFKEMMCFIYTGKAPNLDKMADDLLAAADKYALERLKVMCEDALCSNLSVENAAEILILADLHSADQLKTQAVDFINYHASDVLETSGWKSMVVSHPHLVAEAYRSLASAQCPFLGPPRKRLKQS
notes: also called SPOP with the MATH domain deleted; Flag-tagged SPOP delta MATH

binding result (SPOP-S6A mutant): no binding
B3: 14-3-3γ (other, UniProt P61981 1-247, looked up)
chain: MVDREQLVQKARLAEQAERYDDMAAAMKNVTELNEPLSNEERNLLSVAYKNVVGARRSSWRVISSIEQKTSADGNEKKIEMVRAYREKIEKELEAVCQDVLSLLDNYLIKNCSETQYESKVFYLKMKGDYYRYLAEVATGEKRATVVESSEKAYSEAHEISKEHMQPTHPIRLGLALNYSVFYYEIQNAPEQACHLAKTAFDDAIAELDTLNEDSYKDSTLIMQLLRDNLTLWTSDQQDDDGGEGNN
notes: One of the HA-14-3-3 isoform constructs; also called HA-14-3-3γ
